# Data from publication PMC2879362, “Design of Group IIA Secreted/Synovial Phospholipase A2 Inhibitors: An Oxadiazolone Derivative Suppresses Chondrocyte Prostaglandin E2 Secretion” (PLoS ONE, 2010).
# Key:
# [1] = tested on: COX-2; assay: Western blot of COX-2 protein level in IL-1β-treated chondrocytes; assay type: cell-based, rabbit; details: C8 0.31-1.24 µM in DMEM, IL-1β 20 h
# Protocol: (§1) As expected, COX-1 protein was detectable but COX-2 and iNOS proteins were undetectable in untreated control conditions (Fig. 6A). […] Consequently, the protein ratio of COX-1 to COX-2 was not modified by C8 (Fig. 6B). […] Cell lysates were centrifuged for 15 min at 14000 rpm at 4°C and supernatants were collected. Protein concentrations were determined by the Bradford method by use of the Protein Assay dye reagent (Bio-Rad). Protein extracts (20 µg) were size-separated by SDS-PAGE in a 10% (w/v) polyacrylamide gel and electroblotted to a nitrocellulose membrane. Equal protein loading and transfer was confirmed by staining the membrane with Ponceau Red [0.2% (w/v) in H2O:acetic acid 99∶1]. The membrane was sequentially incubated with antibodies against COX-1 (1∶200, Santa Cruz Biotechnology), COX-2 (1∶500, Santa Cruz Biotechnology), iNOS (1∶400, BD Biosciences) or α-tubulin (1∶100, Santa Cruz Biotechnology) and then with peroxidase-conjugated donkey anti-goat IgG (1∶20000) or donkey anti-rabbit IgG (1∶200, both Santa Cruz Biotechnology). Immunocomplexes were detected by an enhanced chemiluminescence kit (Amersham Bioscience). The membrane was stripped by incubation in 0.2 M NaOH between successive immunodetections. Semi-quantitative scanning densitometry involved use of the ImageJ program (NIH, USA).
# [2] = tested on: iNOS; assay: Western blot of iNOS protein level in IL-1β-treated chondrocytes; assay type: cell-based, rabbit; details: C8 0.31-1.24 µM in DMEM, IL-1β 20 h
# Protocol: as §1
compound,measurement,setting,value
O=c1[nH]c(Cc2ccc(OCCCCCOc3cc4ccccc4c4ccccc34)cc2)no1 [C8],effect on COX-2 protein level,[1],did not alter
same,effect on iNOS protein level,[2],did not alter
